The target of this test is T1, human NK1 receptors (Homo sapiens, UniProt P25103).
T1 construct: expressed in transfected cells; host or cells: CHO cells (Semliki virus expression system), membrane suspension
The test is described as follows: NK1 receptor binding assay, displacement of [3H]substance P. The settings on record: human NK1 receptors in CHO cells (Semliki virus expression system), [3H]substance P 0.6 nM, 60 min at room temperature; for Ki: read-out: affinity to the NK-1 receptor, given as pKi (converted). On the procedure: The affinity of test compounds for the NK1 receptor was evaluated at human NK1 receptors in CHO cells infected with the human NK1 receptor (using the Semliki virus expression system) and radiolabelled with [^3 H]substance P (final concentration 0.6 nM). Binding assays were performed in HEPES buffer (50 mM, pH 7.4) containing BSA (0.04 %) leupeptin (8 μg/ml), MnCl2 (3 mM) and phosphoramidon (2 μM). Binding assays consisted of 250 μl of membrane suspension (1.25×10^5 cells/assay tube), […] of buffer of displacing agent and 125 μl of [^3 H]substance P. Displacement curves were determined with at least seven concentrations of the compound. The assay tubes were incubated for 60 min at room temperature after which time the tube contents were rapidly filtered under vacuum through GF/C filters presoaked for 60 min with PEI (0.3%) with 2×2 ml washed of HEPES buffer (50 mM, pH 7.4). The radioactivity retained on the filters was measured by scintillation counting. All assays were performed in triplicate in at least 2 separate experiments.
For orientation: Displacement assays read how much labelled ligand stays bound in the presence of the test substance.

T1 sequence (P25103 whole entry): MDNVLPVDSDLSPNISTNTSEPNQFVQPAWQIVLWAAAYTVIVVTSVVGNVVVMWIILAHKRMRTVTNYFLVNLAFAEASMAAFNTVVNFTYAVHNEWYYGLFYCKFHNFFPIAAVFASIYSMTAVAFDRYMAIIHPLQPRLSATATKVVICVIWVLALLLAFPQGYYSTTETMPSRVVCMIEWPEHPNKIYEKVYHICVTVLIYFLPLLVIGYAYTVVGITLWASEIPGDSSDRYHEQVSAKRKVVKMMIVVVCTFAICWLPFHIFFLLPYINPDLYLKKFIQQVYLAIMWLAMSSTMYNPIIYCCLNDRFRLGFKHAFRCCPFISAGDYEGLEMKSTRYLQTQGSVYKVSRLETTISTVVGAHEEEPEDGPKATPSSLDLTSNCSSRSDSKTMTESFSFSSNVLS

With “4-(2-Chloro-phenyl)-2-(3-dimethylamino-ethoxy)-pyrimidine-5-carboxylic acid(3,5-bis-trifluoromethyl-benzyl)-methyl-amide”, the “affinity to the NK-1 receptor, given as pKi” value amounted to 8.11.

Turning to `CN(C)CCCOc1ncc(C(=O)N(C)Cc2cc(C(F)(F)F)cc(C(F)(F)F)c2)c(-c2ccccc2Cl)n1` [Example 53, 4-(2-Chloro-phenyl)-2-(3-dimethylamino-propoxy)-pyrimidine-5-carboxylic Acid (3,5-bis-trifluoromethyl-benzyl)-methyl-amide], the Ki was 1.74 nM. Still for that read-out and setting: for `CN1CCN(c2ncc(C(=O)N(C)Cc3cc(C(F)(F)F)cc(C(F)(F)F)c3)c(-c3cccc4ccccc34)n2)CC1` [Example 88, 2-(4-Methyl-piperazin-1-yl)-4-naphthalen-1-yl-pyrimidine-5-carboxylic Acid (3,5-bis-trifluoromethyl-benzyl)-methyl-amide] the value was 2.88 nM; for `Cc1cc(F)ccc1-c1nc(N2CCNCC2)ncc1C(=O)N(C)Cc1cc(C(F)(F)F)cc(C(F)(F)F)c1` [Example 84, 4-(4-Fluor-2-methyl-phenyl)-2-piperazin-1-yl-pyrimidine-5-carboxylic Acid (3,5-bis-trifluoromethyl-benzyl)-methyl-amide], 0.724 nM. Still for that read-out and setting: for `CN(C)CCOc1ncc(C(=O)N(C)Cc2cc(C(F)(F)F)cc(C(F)(F)F)c2)c(-c2ccccc2Cl)n1` [Example 52, 4-(2-Chloro-phenyl)-2-(2-dimethylamino-ethoxy)-pyrimidine-5-carboxylic Acid (3,5-bis-trifluoromethyl-benzyl)-methyl-amide] the value was 3.55 nM.

Values taken from patent US6274588A, “4-phenyl-pyrimidine derivatives” (Hoffmann-La Roche Inc., priority 1999, dated 2001).
